Assay results reported in PubChem BioAssay (NCI).
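Compound exposure: 48 hours, 5 concentrations, 96-well plates. TGI denotes the concentration required for complete inhibition of growth.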

Legend:
Test in all cases: growth of human tumour cells (NCI), 48 h
786-0 renal = test system: 786-0 renal
A498 renal = test system: A498 renal
A549 NSCLC = test system: A549 NSCLC
ACHN renal = test system: ACHN renal
CCRF-CEM leukemia = test system: CCRF-CEM leukemia
COLO 205 colon = test system: COLO 205 colon
DU-145 prostate = test system: DU-145 prostate
EKVX NSCLC = test system: EKVX NSCLC
HCC-2998 colon = test system: HCC-2998 colon
HCT-116 colon = test system: HCT-116 colon
HCT-15 colon = test system: HCT-15 colon
HL-60(TB) leukemia = test system: HL-60(TB) leukemia
HOP-62 NSCLC = test system: HOP-62 NSCLC
HOP-92 NSCLC = test system: HOP-92 NSCLC
HS 578T breast = test system: HS 578T breast
HT29 colon = test system: HT29 colon
K-562 leukemia = test system: K-562 leukemia
KM12 colon = test system: KM12 colon
LOX IMVI melanoma = test system: LOX IMVI melanoma
M14 melanoma = test system: M14 melanoma
MALME-3M melanoma = test system: MALME-3M melanoma
MCF7 breast = test system: MCF7 breast
MDA-MB-231 breast = test system: MDA-MB-231 breast
MDA-MB-435 = test system: MDA-MB-435
MDA-N = test system: MDA-N
MOLT-4 leukemia = test system: MOLT-4 leukemia
NCI-H226 lung = test system: NCI-H226 lung
NCI-H23 lung = test system: NCI-H23 lung
NCI-H460 lung = test system: NCI-H460 lung
NCI/ADR-RES ovarian = test system: NCI/ADR-RES ovarian
OVCAR-3 ovarian = test system: OVCAR-3 ovarian
OVCAR-4 ovarian = test system: OVCAR-4 ovarian
OVCAR-5 ovarian = test system: OVCAR-5 ovarian
OVCAR-8 ovarian = test system: OVCAR-8 ovarian
PC-3 prostate = test system: PC-3 prostate
RPMI-8226 leukemia = test system: RPMI-8226 leukemia
SF-268 CNS = test system: SF-268 CNS
SF-295 CNS = test system: SF-295 CNS
SF-539 CNS = test system: SF-539 CNS
SK-MEL-2 melanoma = test system: SK-MEL-2 melanoma
SK-MEL-28 melanoma = test system: SK-MEL-28 melanoma
SK-MEL-5 melanoma = test system: SK-MEL-5 melanoma
SK-OV-3 ovarian = test system: SK-OV-3 ovarian
SN12C renal = test system: SN12C renal
SNB-19 CNS = test system: SNB-19 CNS
SNB-75 CNS = test system: SNB-75 CNS
SR leukemia = test system: SR leukemia
SW-620 colon = test system: SW-620 colon
T-47D breast = test system: T-47D breast
TK-10 renal = test system: TK-10 renal
U251 CNS = test system: U251 CNS
UACC-257 melanoma = test system: UACC-257 melanoma
UACC-62 melanoma = test system: UACC-62 melanoma
UO-31 renal = test system: UO-31 renal
CAKI-1 renal = test system: CAKI-1 renal
IGROV1 ovarian = test system: IGROV1 ovarian
NCI-H522 lung = test system: NCI-H522 lung
RXF 393 renal = test system: RXF 393 renal

Compound: Cc1oc2ccccc2c(=O)c1Cn1nnc2ccccc21
- TGI (786-0 renal): > 100 µM
- TGI (A498 renal): > 100 µM
- TGI (A549 NSCLC): > 100 µM
- TGI (ACHN renal): > 100 µM
- TGI (CCRF-CEM leukemia): > 100 µM
- TGI (COLO 205 colon): > 100 µM
- TGI (DU-145 prostate): > 100 µM
- TGI (EKVX NSCLC): > 100 µM
- TGI (HCC-2998 colon): > 100 µM
- TGI (HCT-116 colon): > 100 µM
- TGI (HCT-15 colon): > 100 µM
- TGI (HL-60(TB) leukemia): > 100 µM
- TGI (HOP-62 NSCLC): > 100 µM
- TGI (HOP-92 NSCLC): 87.4 µM
- TGI (HS 578T breast): > 100 µM
- TGI (HT29 colon): > 100 µM
- TGI (K-562 leukemia): > 100 µM
- TGI (KM12 colon): > 100 µM
- TGI (LOX IMVI melanoma): > 100 µM
- TGI (M14 melanoma): > 100 µM
- TGI (MALME-3M melanoma): > 100 µM
- TGI (MCF7 breast): 49.2 µM
- TGI (MDA-MB-231 breast): > 100 µM
- TGI (MDA-MB-435): > 100 µM
- TGI (MDA-N): > 100 µM
- TGI (MOLT-4 leukemia): > 100 µM
- TGI (NCI-H226 lung): > 100 µM
- TGI (NCI-H23 lung): > 100 µM
- TGI (NCI-H460 lung): > 100 µM
- TGI (NCI/ADR-RES ovarian): > 100 µM
- TGI (OVCAR-3 ovarian): 79.7 µM
- TGI (OVCAR-4 ovarian): > 100 µM
- TGI (OVCAR-5 ovarian): > 100 µM
- TGI (OVCAR-8 ovarian): > 100 µM
- TGI (PC-3 prostate): > 100 µM
- TGI (RPMI-8226 leukemia): > 100 µM
- TGI (SF-268 CNS): > 100 µM
- TGI (SF-295 CNS): > 100 µM
- TGI (SF-539 CNS): > 100 µM
- TGI (SK-MEL-2 melanoma): > 100 µM
- TGI (SK-MEL-28 melanoma): > 100 µM
- TGI (SK-MEL-5 melanoma): 48.5 µM
- TGI (SK-OV-3 ovarian): > 100 µM
- TGI (SN12C renal): > 100 µM
- TGI (SNB-19 CNS): > 100 µM
- TGI (SNB-75 CNS): > 100 µM
- TGI (SR leukemia): > 100 µM
- TGI (SW-620 colon): > 100 µM
- TGI (T-47D breast): 44.2 µM
- TGI (TK-10 renal): > 100 µM
- TGI (U251 CNS): > 100 µM
- TGI (UACC-257 melanoma): 66.9 µM
- TGI (UACC-62 melanoma): > 100 µM
- TGI (UO-31 renal): > 100 µM

Compound: C[N+]1(C)CC=C(N2CCOCC2)CC1
- TGI (786-0 renal): > 10 µM
- TGI (A498 renal): > 10 µM
- TGI (A549 NSCLC): > 10 µM
- TGI (ACHN renal): > 10 µM
- TGI (CAKI-1 renal): > 10 µM
- TGI (CCRF-CEM leukemia): > 10 µM
- TGI (COLO 205 colon): > 10 µM
- TGI (DU-145 prostate): > 10 µM
- TGI (EKVX NSCLC): > 10 µM
- TGI (HCC-2998 colon): > 10 µM
- TGI (HCT-116 colon): > 10 µM
- TGI (HCT-15 colon): > 10 µM
- TGI (HL-60(TB) leukemia): > 10 µM
- TGI (HOP-62 NSCLC): > 10 µM
- TGI (HS 578T breast): > 10 µM
- TGI (HT29 colon): > 10 µM
- TGI (IGROV1 ovarian): > 10 µM
- TGI (K-562 leukemia): > 10 µM
- TGI (KM12 colon): > 10 µM
- TGI (LOX IMVI melanoma): > 10 µM
- TGI (M14 melanoma): > 10 µM
- TGI (MALME-3M melanoma): > 10 µM
- TGI (MCF7 breast): > 10 µM
- TGI (MDA-MB-231 breast): > 10 µM
- TGI (MDA-MB-435): > 10 µM
- TGI (MDA-N): > 10 µM
- TGI (MOLT-4 leukemia): > 10 µM
- TGI (NCI-H226 lung): > 10 µM
- TGI (NCI-H23 lung): > 10 µM
- TGI (NCI-H460 lung): > 10 µM
- TGI (NCI-H522 lung): > 10 µM
- TGI (NCI/ADR-RES ovarian): > 10 µM
- TGI (OVCAR-3 ovarian): > 10 µM
- TGI (OVCAR-4 ovarian): > 10 µM
- TGI (OVCAR-8 ovarian): > 10 µM
- TGI (PC-3 prostate): > 10 µM
- TGI (RPMI-8226 leukemia): > 10 µM
- TGI (RXF 393 renal): > 10 µM
- TGI (SF-268 CNS): > 10 µM
- TGI (SF-295 CNS): > 10 µM
- TGI (SF-539 CNS): > 10 µM
- TGI (SK-MEL-2 melanoma): > 10 µM
- TGI (SK-MEL-28 melanoma): > 10 µM
- TGI (SK-MEL-5 melanoma): > 10 µM
- TGI (SK-OV-3 ovarian): > 10 µM
- TGI (SN12C renal): > 10 µM
- TGI (SNB-19 CNS): > 10 µM
- TGI (SNB-75 CNS): > 10 µM
- TGI (SR leukemia): > 10 µM
- TGI (SW-620 colon): > 10 µM
- TGI (T-47D breast): > 10 µM
- TGI (TK-10 renal): > 10 µM
- TGI (U251 CNS): > 10 µM
- TGI (UACC-257 melanoma): > 10 µM
- TGI (UACC-62 melanoma): > 10 µM
- TGI (UO-31 renal): > 10 µM
